Test results: US9988635B2, “Modulation of growth hormone receptor expression and insulin-like growth factor expression” (Antisense Therapeutics Limited, priority 2003, dated 2018)
Structures can show the parent of a compound that is named as a salt. In the oligonucleotide strings, read from the 5' end, every base follows the letter of its sugar. An asterisk marks phosphorothioate; unmarked linkages are phosphodiester. Other units and linkages are bracketed, terminal groups are in braces. A string of capitals states the bases alone. e = 2'-O-(2-methoxyethyl) (MOE); [5mC] = 5-methylcytosine; d = 2'-deoxy (DNA)

How the values were obtained:
[1] = system: mouse growth hormone receptor mRNA; assay: Inhibition of mouse growth hormone receptor mRNA levels in b.END cells, quantitative real-time PCR, incl. dose-response; format: cell-based; conditions: averages from three experiments
Protocol: The mouse brain endothelial cell line b.END was obtained from Dr. Werner Risau at the Max Plank Instititute (Bad Nauheim, Germany). b.END cells were routinely cultured in DMEM, high glucose (Gibco/Life Technologies, Gaithersburg, Md.) supplemented with 10% fetal calf serum (Gibco/Life Technologies, Gaithersburg, Md.). Cells were routinely passaged by trypsinization and dilution when they reached 90% confluence. Cells were seeded into 96-well plates (Falcon-Primaria #3872) at a density of 3000 cells/well for use in RT-PCR analysis.
When cells reached 65-75% confluency, they were treated with oligonucleotide. For cells grown in 96-well plates, wells were washed once with 100 μL OPTI-MEM™-1 reduced-serum medium (Invitrogen Corporation, Carlsbad, Calif.) and then treated with 130 μL of OPTI-MEM™-1 containing 3.75 μg/mL LIPOFECTIN™ (Invitrogen Corporation, Carlsbad, Calif.) and the desired concentration of oligonucleotide. Cells are treated and data are obtained in triplicate. After 4-7 hours of treatment at 37° C., the medium was replaced with fresh medium. Cells were harvested 16-24 hours after oligonucleotide treatment.
Total RNA was isolated using an RNEASY 96™ kit and buffers purchased from Qiagen Inc. (Valencia, Calif.) following the manufacturer's recommended procedures. Briefly, for cells grown on 96-well plates, growth medium was removed from the cells and each well was washed with 200 μL cold PBS. 150 μL Buffer RLT was added to each well and the plate vigorously agitated for 20 seconds. 150 μL of 70% ethanol was then added to each well and the contents mixed by pipetting three times up and down. The samples were then transferred to the RNEASY 96™ well plate attached to a QIAVAC™ manifold fitted with a waste collection tray and attached to a vacuum source. Vacuum was applied for 1 minute. 500 μL of Buffer RW1 was added to each well of the RNEASY 96™ plate and incubated for 15 minutes and the vacuum was again applied for 1 minute. An additional 500 μL of Buffer RW1 was added to each well of the RNEASY 96™ plate and the vacuum was applied for 2 minutes. 1 mL of Buffer RPE was then added to each well of the RNEASY 96™ plate and the vacuum applied for a period of 90 seconds. The Buffer RPE wash was then repeated and the vacuum was applied for an additional 3 minutes. The plate was then removed from the QIAVAC™ manifold and blotted dry on paper towels. The plate was then re-attached to the QIAVAC™ manifold fitted with a collection tube rack containing 1.2 mL collection tubes. RNA was then eluted by pipetting 140 μL of RNAse free water into each well, incubating 1 minute, and then applying the vacuum for 3 minutes.
Quantitation of growth hormone receptor mRNA levels was accomplished by real-time quantitative PCR using the ABI PRISM™ 7600, 7700, or 7900 Sequence Detection System (PE-Applied Biosystems, Foster City, Calif.) according to manufacturer's instructions. This is a closed-tube, non-gel-based, fluorescence detection system which allows high-throughput quantitation of polymerase chain reaction (PCR) products in real-time. As opposed to standard PCR in which amplification products are quantitated after the PCR is completed, products in real-time quantitative PCR are quantitated as they accumulate. This is accomplished by including in the PCR reaction an oligonucleotide probe that anneals specifically between the forward and reverse PCR primers, and contains two fluorescent dyes. A reporter dye (e.g., FAM or JOE, obtained from either PE-Applied Biosystems, Foster City, Calif., Operon Technologies Inc., Alameda, Calif. or Integrated DNA Technologies Inc., Coralville, Iowa) is attached to the 5′ end of the probe and a quencher dye (e.g., TAMRA, obtained from either PE-Applied Biosystems, Foster City, Calif., Operon Technologies Inc., Alameda, Calif. or Integrated DNA Technologies Inc., Coralville, Iowa) is attached to the 3′ end of the probe. […]

[2] = Body weight, body length, organ weights and food intake, 1 week pilot study; format: in vivo, mouse
Protocol: (§1) Saline, antisense, mismatch control and octreotide samples were prepared, and coded for blinding. Animals were given a subcutaneous dose of saline every second day, and mismatch control or antisense with administration on days 0, 2, 4, 6. Animals were given twice daily doses of 25 μg octreotide. Animals were housed 4 per cage, for the duration of one week. They had access to a pre-determined quantity of standard mouse food and water at all times throughout the experiment. They were housed in a quiet, temperature- and humidity-maintained environment for the entirety of the study. At day 0 and before treatment on each day or second day, the animals had their body weight and food intake measured, enabling the correct dose of agent to be administered. The animals were monitored closely for any changes in fur, skin, eye, locomotion or other changes in behavior. No problems were observed. Every second day from day −7 to day 7 body weight and food intake were measured.
The serum remaining following the insulin-like growth factor-1 assay was isolated and stored at −80° C. The whole liver was removed rapidly for weighing and snap-frozen in labelled aluminum parcels by submersion in liquid-nitrogen. […]
This confirms published results of others. […] Weight was measured in two ways: weight trend (live animal), and final carcass weight. […]

[3] = dosed orally; cited from earlier work
[4] = system: growth hormone receptor mRNA; assay: Growth hormone receptor mRNA levels in liver, 2 week study; format: in vivo, mouse; conditions: 30 mg/kg; two-week study
Protocol: (§2) A two-week study was done in similar fashion to the one-week study in Example 18, this time using ISIS 227446 at doses of 3, 5, 10, 20 and 30 mg/kg. The mismatch control was given at the same doses. Mice were treated with antisense compound or saline every other day for 14 days.
Growth hormone receptor mRNA levels in liver tissue samples from treated and untreated mice in this two-week study were assayed. The growth hormone receptor antisense inhibitor ISIS 227446 reduced growth hormone receptor mRNA levels in liver after the two-week study by 50% at the 20 mg/kg dose relative to saline control (p<0.001). The 30 mg/kg dose of ISIS 227446 yielded a 53% decrease in growth hormone receptor mRNA (p<0.0001). The mismatch control oligonucleotide ISIS 261303 (SEQ ID NO: 267), at 30 mg/kg, reduced growth hormone receptor mRNA levels by approximately 3%.

[5] = system: serum insulin-like growth factor-I; assay: Serum IGF-I by radioimmunoassay, 1 week pilot study in Balb/C(a) mice; format: in vivo, mouse
Protocol: Forty male Balb/C(a) mice weighing 9 to […] were placed into cages, 4 animals per cage, and allowed to assimilate into their environment with new littermates ˜1 week prior (Day −7) to the commencement of 1 week study. Mice of this age would be at their maximum growth rate. Their body weights were measured and recorded every second day during this period. When mice weighed 11 g (day −2), a blood sample was collected under anesthesia as described below, and a serum IGF-I assay was performed to determine pre-treatment values and to aid in the assigning of mice to treatment groups in order to reduce animal variability. To obtain the blood sample, the animals were anaesthetized with pentobarbital (50 mg/kg i.p.) and non-fasting blood samples collected exactly 5 minutes later from the retrobulbar plexus through heparinized capillary tubes under light ether anesthesia. The 40 animals were placed into five groups with each group having a similar weight average and similar IGF-I average concentration for the trial.
Animals (n=8/group) were designated to the following five treatment groups:
as §1
On day 7, one day after the last dose of antisense, and/or after the last octreotide dose, the animals were anaesthetized with pentobarbital (50 mg/kg i.p.) and non-fasting blood samples collected exactly 5 minutes later from the retrobulbar plexus through heparinized capillary tubes under light ether anesthesia (as on day −7 and 0).
At day −2 and day 7, serum IGF-I measurement was done by radioimmunoassay. Serum IGF-I level is the most widely used measure of growth hormone biological activity in human therapy. It is used to measure the efficacy of growth hormone antagonist treatments like Trovert, which block cells' responsiveness to excess growth hormone, and dopamine agonists and octreotide somatostatin […] drugs that block growth hormone secretion from the pituitary.

growth hormone receptor = assay: [125I] hGH specific binding assay on liver microsomal membranes of treated mice; format: in vivo, mouse
Protocol: Specific binding assays were carried out with liver tissue using iodinated human growth hormone [^125I] hGH.
Microsomal membrane preparations were obtained as follows. 400 mg of tissue powder was homogenized in cold homogenizing buffer (50 mM Tris/HCl, 250 mM sucrose, pH 7.4). This was centrifuged at 2000 rpm for 10 min at 3° C. and the supernatant was saved. This was centrifuged again at 15,000 rpm for 20 min. Pellets were resuspended in 0.5 ml of RRA buffer with inhibitor (50 mM Tris, 20 mM MgCl2, pH 7.4). Microsomal preparation samples were stored at −80° C. until the specific binding assay.
The [^125I] hGH specific binding assay was done as follows. Four glass tubes were set up for each sample, two for (−), two for (+). Different sample and solutions were added in each tube as follows (i) 0.2 ml RRA buffer (50 mM Tris, 20 mM MgCl2, 0.1% BSA, pH 7.4); (ii) 0.1 ml membrane (½ or ¼ dilution); (iii) 0.1 ml bGH (10 μg/ml) for the (+) tube or 0.1 ml RRA buffer for the (−) tube; and (iv) 0.1 ml [^125I]-hGH tracer.
Samples were incubated at 4° C. with shaking overnight. The reaction was stopped with 2.5 ml of cold RRA, and the sample centrifuged at 2800 rpm for 25 min at 4° C. Supernatant was aspirated and pellets counted using the γ-counter. The specific binding capacity was calculated as: CPM(−)-CPM(+). Protein content of the microsomal samples was determined by the BCA protein assay.

serum IGF-I = assay: Serum IGF-I, 2 week study in mice; format: in vivo, mouse
Protocol: as §2
P-values were determined by t-test.

[6] = 30 mg/kg s.c. once every 2 days, 1 week
[7] = liver microsomal membranes, 30 mg/kg every second day for one week
[8] = 30 mg/kg s.c. every second day for one week
[9] = 30 mg/kg every second day for one week

Compound: 227519 (antisense eT*e[5mC]*eA*e[5mC]*eA*d[5mC]*d[5mC]*dT*dA*d[5mC]*d[5mC]*dT*dT*dT*dG*e[5mC]*eT*eG*e[5mC]*eT) [compound 227519]
- % INHIB of mouse growth hormone receptor mRNA levels [1]: 44%

Compound: 227520 (antisense e[5mC]*eA*eT*e[5mC]*eT*dT*dA*dA*dT*d[5mC]*d[5mC]*dT*dT*dG*dG*eA*eA*eA*e[5mC]*eA) [compound 227520]
- % INHIB of mouse growth hormone receptor mRNA levels [1]: 42%

Compound: C[C@@H](O)[C@@H]1NC(=O)[C@H](CCCCN)NC(=O)[C@@H](Cc2c[nH]c3ccccc23)NC(=O)[C@H](Cc2ccccc2)NC(=O)[C@@H](NC(=O)[C@H](N)Cc2ccccc2)CSSC[C@@H](C(=O)N[C@H](CO)[C@@H](C)O)NC1=O [Octreotide, octreotide, reference compound]
- liver weight (g/total body weight) ([2]; octreotide group): slight increase

Compound: CC(C)C[C@H]1C(=O)N2CCC[C@H]2[C@]2(O)O[C@](NC(=O)[C@@H]3C=C4c5cccc6[nH]c(Br)c(c56)C[C@H]4N(C)C3)(C(C)C)C(=O)N12 [bromocriptine mesylate]
- reduce growth hormone production and associated IGF-I sufficiently, % of cases [3]: 10%

Compound: C=CCN1C[C@H](C(=O)N(CCCN(C)C)C(=O)NCC)C[C@@H]2c3cccc4[nH]cc(c34)C[C@H]21 [cabergoline]
- reduce growth hormone production and associated IGF-I sufficiently, % of cases [3]: 10%

Compound: ISIS 261303: negative control oligonucleotide, 8-base mismatch to ISIS 227446 (DNA AGAGAGCTACCTAACTAACA; chemistry not given here) [reference compound]
- reduction of growth hormone receptor mRNA levels in liver [4]: approximately 3%
- % IGF-I reduction at day 7 compared to saline control at day 7 [5, 6]: 21%
- IGF-I (ng/ml) Day 7 [5, 6]: 81.1 ± 19.16 ng/mL
- % IGF-I reduction at day 7 compared to saline control at day 7 ([5]; 30 mg/kg s.c. once every 2 days, 1 week, listed as Mismatch): 20.98%
- IGF-I (ng/ml) Day −2 ([5]; pre-treatment value, 30 mg/kg once every 2 days group): 184.87 ± 55.6 ng/mL
- effect on growth hormone receptor levels compared to the control saline group (growth hormone receptor; 30 mg/kg): no effect
- Specific binding/mg protein (cpm) ¼ dilution (growth hormone receptor; [7]): 8431 ± 2663 cpm
- Specific binding/mg protein (cpm) ½ dilution (growth hormone receptor; [7]): 7090 ± 1877 cpm

Compound: TTACCGTATGGTTCCTCACT (chemistry not given here) [ISIS 260120, unrelated negative control oligonucleotide, reference compound]
- effect on serum IGF-I at 30 mg/kg as observed with the mismatch oligonucleotide (serum IGF-I; 30 mg/kg, 2 weeks): not observed

Compound: acaaagatccatacctgaga (eA*e[5mC]*eA*eA*eA*dG*dA*dT*d[5mC]*d[5mC]*dA*dT*dA*d[5mC]*d[5mC]*eT*eG*eA*eG*eA; antisense) [ISIS 227446]
- reduction of growth hormone receptor mRNA levels in liver [4]: 53%
- effect on serum IGF-I levels (serum IGF-I; 3 mg/kg, equivalent to saline (untreated) control (separate experiment)): no effect
- serum IGF-I as % of the control (saline) group [5, 8]: 55%
- % IGF-I reduction at day 7 compared to saline control at day 7 [5, 6]: 45%
- % IGF-I reduction at day 7 compared to saline control at day 7 ([5]; 30 mg/kg s.c. once every 2 days, 1 week, listed as ASO): 44.51%
- reduction of specific binding compared to saline, ¼ dilution (growth hormone receptor; [9]): 39%
- reduction of specific binding compared to saline, ½ dilution (growth hormone receptor; [9]): 26%
- growth hormone receptor levels (growth hormone binding activity) as % of control (saline) group (growth hormone receptor; [8]): 61%
- growth hormone receptor levels as % of the control (mismatch) group (growth hormone receptor; ½ dilution experiment, 30 mg/kg): 59%
- influence on body weight or organ weights ([2]; 30 mg/kg every second day): not sufficient to influence body weight or organ weights
